One molecule from BindingDB's records for doi:10.1016/0960-894X(95)00483-A (1995) can be followed below.

The assay deals with Beta-2 adrenergic receptor (Rattus norvegicus) (UniProt P10608). The experiment in a line: Agonistic activity against Beta-2 adrenergic receptor in rat uterus.
Chain of Beta-2 adrenergic receptor (Rattus norvegicus) (P10608 whole entry, looked up): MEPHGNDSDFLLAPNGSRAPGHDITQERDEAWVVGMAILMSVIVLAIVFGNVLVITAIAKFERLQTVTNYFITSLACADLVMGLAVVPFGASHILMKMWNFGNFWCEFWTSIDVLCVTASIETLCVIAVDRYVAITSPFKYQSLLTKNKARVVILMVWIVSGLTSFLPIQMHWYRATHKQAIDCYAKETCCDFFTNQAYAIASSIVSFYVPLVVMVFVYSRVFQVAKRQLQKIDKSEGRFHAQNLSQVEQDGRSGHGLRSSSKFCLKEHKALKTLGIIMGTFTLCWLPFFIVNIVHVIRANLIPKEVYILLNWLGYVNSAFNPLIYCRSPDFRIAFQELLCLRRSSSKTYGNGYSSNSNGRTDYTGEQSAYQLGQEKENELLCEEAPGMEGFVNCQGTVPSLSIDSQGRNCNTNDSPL

For the molecule `O=C(O)C1(C(=O)O)Oc2cc3c(cc2O1)C[C@@H](NC[C@H](O)c1cccc(Cl)c1)CCC3` [FR-165914], the half-maximal inhibitory concentration (IC50) (in general, the concentration at which inhibition is half-maximal) is above 10 µM.
